We go through five molecules from US6656695B2, “Biomap characterization of biologically active agents” (Bioseek, Inc., priority 2000, dated 2003).

Each structure is given as a SMILES string.

Data set [1] deals with HUVEC cells. In words: optimized inflammatory assay combination: HUVEC treated with TNF-α+IFN-γ+IL-1, readout parameters by cell-based ELISA (biomap). On the set-up: species or system human. The settings on record: for activity (alteration of the biomap) in the optimized assay combination: HUVEC, TNF-α+IFN-γ+IL-1, 24 hours, 10 μM NHGA, 200 μM PDTC, 9 μM PD098059, PPM-18 2 μM, AG126 25 μM, p55-Fc 50 ng/ml; for cellular toxicity: either drug alone at higher concentrations (2-fold) than PPM-18 2 μM / AG126 25 μM. Here is the method: Primary human umbilical vein endothelial cells (HUVEC) are used. Other cells that may replace HUVEC in the screen include primary microvascular endothelial cells, aortic or arteriolar endothelial cells or endothelial cell lines such as EAhy926 or E6-[…]-5-2G cells or human telomerase reverse transcriptase-expressing endothelial cells (Simmons, J. Immunol., 148:267, 1992; Rhim, Carcinogenesis 19:673, 1998; Yang, J. Biol. Chem. 274:26141, 1999). 2×10^4 cells/ml are cultured to confluence in EGM-2 (Clonetics). Other media that may replace EGM-2 include EGM (Clonetics) and Ham's F12K medium supplemented with 0.1 mg/ml heparin and 0.03-0.05 mg/ml endothelial cell growth supplement (ECGS) and 10% FBS, or medium M199 (Life Technologies, Inc.) containing 20% fetal bovine serum and 2 ng/ml basic fibroblast growth factor (Jaffe, J. Clin. Invest. 52:2745, 1973; Hoshi, PNAS 81:6413, 1984). The disease environment present in chronic inflammatory diseases, such as Crohn's disease, differs from the normal condition by increased presence of multiple biologically active agents including IL-1, TNF-α, and IFN-γ (Woywodt, 1994; Kakazu, 1999). Other biologically active agents that may be increased in chronic inflammatory disease environments include IL-4, IL-6, IL-8, IL-12, IL-13, IL-18, TGFbeta, and histamine, as well as activated leukocytes and their products (Daig, 1996, Gut 38:216; Woywodt, 1994, Eur. cytokine Netw. 5:387; Kakazu, 1999 Am J. Gastroenterol. 94:2149; Pizarro, 1999, J. Immunol. 162:6829; Monteleone, 1999, J. Immunol. 163:143; […] Enteral Nutr 23:S20; Beck, 1999, […]. Bowel Dis. 5:44). Optimized assay combinations will contain at least two, and preferably three, four or more of these biologically active agents. […] After 24 hours, cultures are washed and evaluated for the presence of the parameters ICAM-1 (1), VCAM-1 (2), E-selectin (3), IL-8 (4), CD31 (5), HLA-DR (6) and MIG (7) by cell-based ELISA as described (Melrose, J. Immunol. 161:2457, 1998). For this, plates are blocked with 1% Blotto for 1 hr, and treated with primary antibodies (obtained from Pharmingen and Becton Dickinson) at 1 ng/ml for 2 hr. After washing, secondary peroxidase-conjugated anti-mouse IgG antibody (Promega) at 1:2500 is applied for 45 min. After washing, TMB substrate (Kierkegaard & Perry) is added and color developed. Development is stopped by addition of H2SO4 and the absorbance at 450 nm (subtracting the background absorbance at 600 nm) is read with a Molecular Dynamics plate reader. The relative expression levels of each parameter are indicated by the OD at 450 nm shown along the y-axis. The mean +/- SD from triplicate samples is shown. […] Confluent cultures of HUVEC cells are treated with TNF-α (5 ng/ml)+IFN-γ (100 ng/ml)+IL-1 (1 ng/ml) in the presence or absence of neutralizing anti-TNF-α or control antibody (Goat anti-IgG). […] In FIG. 3A, the relative expression of each parameter is shown along the y-axis as average value of the OD measured at 450 nm of triplicate samples. The mean +/- SD from triplicate samples are shown. * indicates p<0.05 comparing results obtained with anti-TNF-α to the control. […] A color-coded representation of the biomaps developed from the data is shown. […] J. Physiol. 273(2 Pt 2):[…], 1997), the corticosteroids dexamethasone and prednisolone, echinacea, AA861 (Lee, J. Immunol. 158, 3401, 1997), apigenin ([…], Am. J. Pathol. 147:278, 1995), nordihydroguaiaretic acid (NHGA) (Brennen, Biochem. […] J. Immunol. 27:2172, 1997), pyrrolidine dithiocarbamate (PDTC) (Boyle, Circulation, 98, (19 Suppl):11282, 1998), PPM-18 (Yu, Biochem. […] Biol. Chem. 273:18165, 1998), AG126 (Novogrodsky, Science 264, 1319, 1994), and neutralizing anti-TNF-α antibody. Color-coded representations of the resulting biomaps are shown. Confluent cultures of HUVEC cells are treated with TNF-α (5 ng/ml)+IFN-γ (100 ng/ml)+IL-1 (1 ng/ml) in the presence or absence of agents or buffers at the concentrations indicated in Table 1. […]
(In general: In an ELISA, binding on a coated surface is turned into a signal by an enzyme label.)

Data set [2] deals with HUVEC cells. In words: multiplex (secondary) assay combinations: HUVEC with single pathway activators or media, biomaps by cell-based ELISA. On the set-up: species or system human. The conditions noted are these: TNF-α, IFN-γ, IL-1 alone or combined; 20 μM AA861, 10 μM NHGA; FIG. 5. Here is the method:
Confluent cultures of HUVEC cells are treated with TNF-α (5 ng/ml), IFN-γ (100 ng/ml), IL-1 (20 ng/ml), the combination of TNF-α+IFN-γ+IL-1, or media (no cytokine) in the presence or absence of neutralizing anti-TNF-α, 20 μM AA861 or 10 μM NHGA. After 24 hours, cultures are washed and evaluated for the cell surface expression of ICAM-1 (1), VCAM-1 (2), E-selectin (3), IL-8 (4), and MIG (5) by cell-based ELISA performed as described in FIG. 1. A color-coded representation of the resulting biomaps derived from the data is shown in FIG. 5, coded as described in FIG. 2B.
Confirmation is performed by evaluating the test agent in assay combinations that include both physiologic and alternative pathway activators. […] After 24 hours, cultures are washed and evaluated for the cell surface expression of ICAM-1 (1), VCAM-1 (2), E-selectin (3), CD31 (4), and MIG (5) by cell-based ELISA performed as described in FIG. 1. […]
In FIG. 7B, confluent cultures of HUVEC cells are treated with TNF-α (5 ng/ml), IFN-γ (100 ng/ml), IL-1 (20 ng/ml), the combination of TNF-α+IFN-γ+IL-1, or media in the presence or absence of p55-Fc. After 24 hours, cultures are washed and evaluated for the cell surface expression of ICAM-1 (1), VCAM-1 (2), E-selectin (3), IL-8 (4), and MIG (5) by cell-based ELISA performed as described in FIG. 1. […]

Turning to `N#CC(C#N)=Cc1ccc([N+](=O)[O-])c(O)c1` [AG126], in the data set with HUVEC cells [1], the “activity (alteration of the biomap) in the optimized assay combination” value (shortened to “activity (alteration of the biomap)”) is reported as “active compounds” and the cellular toxicity result is “cellular toxicity”.
As for `CC(Cc1ccc(O)c(O)c1)C(C)Cc1ccc(O)c(O)c1` (centres unmarked) [NHGA, nordihydroguaiaretic acid], in the data set with HUVEC cells [2], the “cytokine signaling pathways targeted” value is “target multiple cytokine signaling pathways”. In addition, the “activity (alteration of the biomap)” value with HUVEC cells [1] is listed as “altered biomaps”.
On to `COc1cccc(-c2cc(=O)c3ccccc3o2)c1N` [PD098059], for which the “activity (alteration of the biomap)” value in the data set on HUVEC cells [1] is reported as “altered biomaps”.
As to `S=C(S)N1CCCC1` [PDTC, pyrrolidine dithiocarbamate], the “activity (alteration of the biomap)” value in the data set with HUVEC cells [1] is reported as “altered biomaps”.
Turning to `O=C(NC1=CC(=O)c2ccccc2C1=O)c1ccccc1` [PPM-18], in the data set on HUVEC cells [1], the “activity (alteration of the biomap)” value is “active compounds” and the cellular toxicity result is recorded as “cellular toxicity”.
